In PMC10220917, “Transdermal Delivery of α-Aminophosphonates as Semisolid Formulations—An In Vitro-Ex Vivo Study” (Pharmaceutics, 2023):
Several values for one entry are separate records, joined by “and”; a condition that tells them apart may be missing. Identical values can stand only once.

Assays:
[1] = Drug penetration in dynamic skin-on-a-chip microfluidic diffusion chamber through excised rat skin; type: in vitro ADME, male Wistar rats; conditions: 2% cream; for Effect of higher temperature on absorption across excised skins: 32 °C vs 23.5 °C, dynamic diffusion cells; for Cmax (cumulative mass penetrated through excised skin): dynamic cell, excised rat skin, 5 h
Description: In the ex vivo experiments, the abdominal skin of male Wistar rats (ToxiCoop, Budapest, Hungary), with 520–609 g bodyweight, were used. The animals had free access to food and water before the study. The experiments were performed in compliance with the guidelines of the Association for Assessment and Accreditation of Laboratory Animal Care International and were in accordance with the spirit of the license issued by the Directorate for the Safety of the Food Chain and Animal Health, Budapest, and Pest Agricultural Administrative Authority, Hungary (PE/EA/4122-7/2016). The rats were anaesthetized intraperitoneally with chloral hydrate (400 mg/kg). The abdominal surface was shaved with an electric shaver and epilated with an epilator cream (X-epil, Aveola Kft., Budapest, Hungary). The skin was washed, wiped dry and mechanically sensitized 10 times by tape stripping with leucoplast (BSN Medical GmbH, Hamburg, Germany) to remove the upper layers of dead keratinocytes. This technique enables reaching detectable concentrations in the dermis and hypodermis. The double-layered skin (pinched together by hand) thickness of the epilated tape-stripped skin was measured with an engineer’s micrometer (Asimeto, Budapest, Hungary). The average double-layered skin thickness was 1.53 ± 0.03 mm. After the first cutting with blunt Metzen scissors, connecting tissue, fat and blood vessels were carefully removed. For the Franz diffusion cell and skin-on-a-chip studies, full-thickness skin incisions were made by punches (Stubai GmbH, Fulpmes, Austria) in diameter of 35 mm and 18 mm, respectively. The excised samples were wrapped in aluminium foil and stored in a deep freezer at −80 °C. On the day of the study, the skin preparations were taken out from the freezer for 30 min before the initiation of the experiment and thawed at room temperature.
The skin-on-a-chip microfluidic diffusion chamber is a polydimethylsiloxane-based system in an aluminium frame (Figure 1B). Similar to the Franz diffusion cells, it contains two compartments, and the membrane or skin is placed between them. The major advantage of this technique is the reduction in needed volumes and pieces in the required components, membranes and skins, as discussed in detail in our previous papers. The diffusion surface is 0.5 cm^2, which separates the aminophosphonate cream-containing donor chamber and the PPF-filled receptor chamber. Contrary to the static Franz diffusion cells, the microfluidic diffusion chamber is a dynamic system, i.e., the PPF flow is continuous in the receptor compartment, ensured by a syringe pump (NE-1000, New Era, Farmingdale, NY, USA), which includes a 5 mL syringe filled with PPF, at a flow rate of 4 µL/min during the experiment. The PPF solution was running through the chip, filling the receptor chamber and the microfluidic channel and leaving the device at the outlet into collection vials. The samples were collected every 30 min for 5 h. The collected samples were placed on dry ice and stored at −80 °C until the bioanalysis. First, the experiments were performed at room temperature (23.5 °C) with temperature regulation by automatic air conditioning system in the lab in three parallels. The investigations were then repeated at 32 °C, putting the whole system into an incubator (Steriliser SN160, Memmert GmbH, Schwabach, Germany). As the volume capacity of incubator was low, only one syringe pump and skin-on-a-chip could be tested in the instrument at the same time. […]

[2] = test system: multidrug-resistant (MDR) uterine sarcome cell line; parameters: method as in earlier work; conditions: MDR uterine sarcoma cells; cited from earlier work
[3] = Particle size (droplet size) distribution of 2% creams by laser diffraction; type: physicochemical; conditions: 2% cream formulation
Source text: α-Aminophosphonates were dispersed in the following hydrophilic cream base (O/W emulsion ointments): 46 m/m% Petrolatum ointment base, 10 m/m% Propylene glycol (Hungaropharma Zrt., Budapest, Hungary), 4 m/m% Paraffin oil (Hungaropharma Zrt., Budapest, Hungary), 38 m/m% Purified water. The components of the Petrolatum ointment base were 26 m/m% Vaselinum album (Hungaropharma Zrt., Budapest, Hungary), 12 m/m% Cetostearyl alcohol (Molar Chemicals Kft, Halásztelek, Hungary), 10 m/m% Propylene glycol, 8 m/m% Paraffin oil, 4 m/m% Polyoxyethylene sorbitan monostearate (Poly-sorbate 60) (Hungaropharma Zrt. Budapest, Hungary), and 40 m/m% Purified water (Table 3). The concentration of propylene glycol was set based on the recommendations on topical dosage forms.
The particle size distribution was measured with a Malvern Mastersizer2000 (Malvern Instruments Ltd., Malvern, UK) laser diffraction device. In total, 1 g of sample was dispersed in 10 mL of water, and after 1 min of Vortex shaking, 1 mL was taken and added to the sample dispenser unit containing 100 mL of purified water. The dispenser unit was applied at 1500 RPM.
The multi-channel detector system measured the scattering of red laser light with a wavelength of […], and the evaluation software provided the results after three parallel exposures according to the Fraunhofer method. The average curves were calculated from three parallel measurements. […]

[4] = Drug release in dynamic skin-on-a-chip microfluidic diffusion chamber through cellulose acetate membrane; type: in vitro ADME; conditions: 2% cream
Description: (§1) For the in vitro studies, cellulose acetate filter with pore size of 0.45 μm (Sartorius AG, Göttingen, Germany) was cut to size (35 mm and 18 mm diameter discs for Franz diffusion cell and skin-on-a-chip microfluidic system, respectively) and soaked in isopropyl myristate (Molar Chemicals Kft., Halásztelek, Hungary) for 30 min before the experiment. The excess of isopropyl myristate was removed, and the impregnated cellulose acetate membrane was placed into the Franz diffusion cell or microfluidic diffusion chamber.
The skin-on-a-chip microfluidic diffusion chamber is a polydimethylsiloxane-based system in an aluminium frame (Figure 1B). Similar to the Franz diffusion cells, it contains two compartments, and the membrane or skin is placed between them. The major advantage of this technique is the reduction in needed volumes and pieces in the required components, membranes and skins, as discussed in detail in our previous papers. The diffusion surface is 0.5 cm^2, which separates the aminophosphonate cream-containing donor chamber and the PPF-filled receptor chamber. […]
(§2) The Franz diffusion cell data and the skin-on-a-chip data were averaged, and the means and standard error of the mean (SE) were calculated and presented. Area under the curve (AUC) values were calculated using Origin Pro software. […]

[5] = Drug penetration in static Franz diffusion cells through excised rat skin; type: in vitro ADME, male Wistar rats; conditions: 2% cream, Franz cell, 32 °C
Description: In the ex vivo experiments, the abdominal skin of male Wistar rats (ToxiCoop, Budapest, Hungary), with 520–609 g bodyweight, were used. The animals had free access to food and water before the study. The experiments were performed in compliance with the guidelines of the Association for Assessment and Accreditation of Laboratory Animal Care International and were in accordance with the spirit of the license issued by the Directorate for the Safety of the Food Chain and Animal Health, Budapest, and Pest Agricultural Administrative Authority, Hungary (PE/EA/4122-7/2016). The rats were anaesthetized intraperitoneally with chloral hydrate (400 mg/kg). The abdominal surface was shaved with an electric shaver and epilated with an epilator cream (X-epil, Aveola Kft., Budapest, Hungary). […] The double-layered skin (pinched together by hand) thickness of the epilated tape-stripped skin was measured with an engineer’s micrometer (Asimeto, Budapest, Hungary). […]
Hanson 6-Cell Manual Diffusion Test System-type vertical diffusion cells (Franz cell) were used (Hanson Research Corp., Chatsworth CA, USA; ABL&E-JASCO Hungary Kft., Budapest, Hungary, Figure 1A). […] The weight of the sample was measured with analytical accuracy. […]

[6] = Drug release in static Franz diffusion cells through cellulose acetate membrane; type: in vitro ADME; conditions: 2% cream, Franz cell, 32 °C
Description: as §1
Hanson 6-Cell Manual Diffusion Test System-type vertical diffusion cells (Franz cell) were used (Hanson Research Corp., Chatsworth CA, USA; ABL&E-JASCO Hungary Kft., Budapest, Hungary, Figure 1A). Each unit was composed of a donor chamber, which was filled with 1000 µL of the aminophosphonate cream by a Microman E piston gel positive replacement pipette (Gilson, Middleton, WI, USA). The sample was layered in a uniform layer on the top of the membrane. The weight of the sample was measured with analytical accuracy. […]
as §2

SMILES	Effect of higher temperature on absorption across excised skins [1]	Degree of cytotoxicity [2]	Particle (droplet) size d of main peak [3]	Particle (droplet) size d of second peak [3] [µm]	Volume share at main particle size peak [3]	Volume share at second particle size peak [3]	Cmax (cumulative mass penetrated through excised skin) ([1]; 32 °C)	Cmax (cumulative mass penetrated through excised skin) ([1]; ambient temperature (23.5 °C))	Cmax (cumulative mass released through membrane) ([4]; dynamic cell, cellulose acetate membrane, 32 °C, 5 h)	Effect of higher temperature on penetration through membranes ([4]; 32 °C vs 23.5 °C, dynamic diffusion cells)	Penetration profile in rat skin [5]	Cmax (cumulative mass penetrated through excised skin) ([5]; excised rat skin, 5 h)	Penetration kinetics in the membrane [6]	Cmax (cumulative mass released through membrane) ([6]; cellulose acetate membrane, 5 h)
CCOP(=O)(OCC)C(NCc1ccccc1)c1ccc(C)cc1 (stereo not drawn) [1b]	practically independent of the temperature	most effective	30–40 µm	110	about 6.3%	about 3.2%								
CCOP(=O)(OCC)C(NCc1ccccc1)c1ccc(Cl)cc1 (stereo not drawn) [1c]	significantly improved	most effective	20–30 µm	110	7.3%	~ 3.0%								
CCOP(=O)(OCC)C(NCc1ccccc1)c1ccccc1 (stereo not drawn) [1a]	significantly improved	less cytotoxic	33.156 µm and 33 µm		7%		~ 9 µg/cm^2	~ 2.8 μg/cm^2	~ 300 µg/cm^2	only moderately enhanced	almost linear growing profile	~ 21 µg/cm^2	rapid and saturating	~ 330 µg/cm^2
